According to ChEMBL document CHEMBL4316626, “N-Acyl pyrazoles: Effective and tunable inhibitors of serine hydrolases” (Bioorg Med Chem, 2019):

Assays:
[1] = Inhibition of recombinant rat FAAH deltaTM mutant expressed in Escherichia coli using 14C-labeled oleamide as substrate preincubated for 3 hrs followed by substrate addition and measured by TLC based Dixon-plot analysis; conditions: read-out: Ki(app)
[2] = target: T1, Fatty-acid amide hydrolase 1 (Mus musculus, UniProt O08914); test: Inhibition of FP-rhodamine probe binding to FAAH in mouse brain membrane proteome preincubated for 1 hr followed by FP-rhodamine addition and measured after 30 mins by SDS-PAGE based fluorescence assay; format: cell membranes
T1 sequence (O08914 whole entry): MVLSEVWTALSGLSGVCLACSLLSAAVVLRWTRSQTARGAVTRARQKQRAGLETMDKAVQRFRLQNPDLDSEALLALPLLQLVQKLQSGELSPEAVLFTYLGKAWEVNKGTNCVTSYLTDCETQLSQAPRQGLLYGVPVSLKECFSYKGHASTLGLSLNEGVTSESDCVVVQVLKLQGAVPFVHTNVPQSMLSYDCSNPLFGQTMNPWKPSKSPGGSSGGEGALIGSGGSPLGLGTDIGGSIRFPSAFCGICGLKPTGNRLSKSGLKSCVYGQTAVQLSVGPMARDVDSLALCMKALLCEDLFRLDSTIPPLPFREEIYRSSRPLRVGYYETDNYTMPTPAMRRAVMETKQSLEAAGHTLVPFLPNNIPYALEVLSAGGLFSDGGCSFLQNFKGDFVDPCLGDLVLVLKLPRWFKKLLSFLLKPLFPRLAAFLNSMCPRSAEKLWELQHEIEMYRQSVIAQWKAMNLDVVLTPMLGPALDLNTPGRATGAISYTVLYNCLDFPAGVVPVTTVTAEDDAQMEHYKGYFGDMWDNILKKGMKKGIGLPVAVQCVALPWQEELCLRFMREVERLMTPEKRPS

Monoglyceride lipase = target: T2, Monoglyceride lipase (Mus musculus, UniProt O35678); test: Inhibition of FP-rhodamine probe binding to MGLL in mouse brain membrane proteome preincubated for 1 hr followed by FP-rhodamine addition and measured after 30 mins by SDS-PAGE based fluorescence assay; format: cell membranes
T2 sequence (O35678 whole entry): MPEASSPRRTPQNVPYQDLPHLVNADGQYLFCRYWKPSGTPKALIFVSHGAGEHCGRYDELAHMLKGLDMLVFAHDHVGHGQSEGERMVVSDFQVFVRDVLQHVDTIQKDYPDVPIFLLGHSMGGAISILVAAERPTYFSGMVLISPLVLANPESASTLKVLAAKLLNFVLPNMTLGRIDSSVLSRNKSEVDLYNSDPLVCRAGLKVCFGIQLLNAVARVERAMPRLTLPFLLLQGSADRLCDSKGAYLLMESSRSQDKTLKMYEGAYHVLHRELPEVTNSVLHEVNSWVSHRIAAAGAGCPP

[3] = target: T3, Monoacylglycerol lipase ABHD6 (Mus musculus, UniProt Q8R2Y0); test: Inhibition of FP-rhodamine probe binding to ABHD6 in mouse brain membrane proteome preincubated for 1 hr followed by FP-rhodamine addition and measured after 30 mins by SDS-PAGE based fluorescence assay; format: cell membranes
T3 sequence (Q8R2Y0 whole entry): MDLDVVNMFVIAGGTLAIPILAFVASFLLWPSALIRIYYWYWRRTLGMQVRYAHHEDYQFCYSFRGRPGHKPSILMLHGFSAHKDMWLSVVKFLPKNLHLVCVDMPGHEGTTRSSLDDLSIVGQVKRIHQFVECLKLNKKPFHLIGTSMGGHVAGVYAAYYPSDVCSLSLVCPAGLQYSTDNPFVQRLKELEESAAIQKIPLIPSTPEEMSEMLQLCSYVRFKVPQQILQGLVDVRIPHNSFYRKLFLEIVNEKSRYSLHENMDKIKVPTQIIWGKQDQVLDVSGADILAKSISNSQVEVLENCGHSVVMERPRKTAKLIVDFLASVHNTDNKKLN

[4] = target: T4, Neutral cholesterol ester hydrolase 1 (Mus musculus, UniProt Q8BLF1); test: Inhibition of FP-rhodamine probe binding to KIAA1363 in mouse brain membrane proteome preincubated for 1 hr followed by FP-rhodamine addition and measured after 30 mins by SDS-PAGE based fluorescence assay; format: cell membranes
T4 sequence (Q8BLF1 whole entry): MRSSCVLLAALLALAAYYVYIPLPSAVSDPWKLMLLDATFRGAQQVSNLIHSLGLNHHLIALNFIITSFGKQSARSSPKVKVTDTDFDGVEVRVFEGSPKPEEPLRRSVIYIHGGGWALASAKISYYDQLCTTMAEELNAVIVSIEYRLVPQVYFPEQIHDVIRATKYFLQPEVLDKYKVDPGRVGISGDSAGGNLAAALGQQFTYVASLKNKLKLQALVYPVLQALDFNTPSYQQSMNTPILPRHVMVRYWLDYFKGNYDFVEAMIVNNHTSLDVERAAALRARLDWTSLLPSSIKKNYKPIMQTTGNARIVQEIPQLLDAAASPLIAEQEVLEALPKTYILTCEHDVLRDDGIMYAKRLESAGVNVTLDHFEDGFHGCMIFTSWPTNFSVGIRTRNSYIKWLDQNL

Mus musculus = species: Mus musculus; test: Selectivity ratio of IC50 for inhibition of FP-rhodamine probe binding to ABHD6 in mouse brain membrane proteome to IC50 for inhibition of FP-rhodamine probe binding to MGLL in mouse brain membrane proteome; format: cell membranes

Structure (SMILES) | Ki [1] [µM] | IC50 [2] [µM] | IC50 (Monoglyceride lipase) [µM] | IC50 [3] [µM] | IC50 [4] [µM] | Ratio IC50 (Mus musculus)
N#Cc1cnn(C(=O)N2CCN(C(c3ccc(OCc4ccccc4)cc3)c3ccc(OCc4ccccc4)cc3)CC2)c1 | 25 | 790 | 0.02 | 130 | > 100 | > 1000
N#Cc1cnn(C(=O)N2CCN(C(c3ccc4ccccc4c3)c3ccc4ccccc4c3)CC2)c1 |  | > 100 | 0.008 | 0.56 | > 100 | 70
